Source: patent US4240964A, “2-(O-Hydroxyphenyl)-pyrrole and process for its preparation” (BASF Aktiengesellschaft, priority 1978, dated 1980)
Structures can show the parent of a compound that is named as a salt.

Columns and labels:
[1] = test system: isoproterenol-induced tachycardia (β1); assay: β1-sympatholytic action: inhibition of isoproterenol-induced tachycardia in pithed rats; assay type: in vivo, rats (Sprague-Dawley, Rattus norvegicus); conditions: for ED50: Rattus norvegicus, 5 min, isoproterenol 0.1 ug/kg i.v. before and 5 minutes after test substance, read-out: β1-sympatholytic action ED 50% (dose which inhibits the isoproterenol-induced tachycardia by 50%); for β1-sympatholytic activity, times greater than propranolol: comparison with propranolol
Description: The β-sympatholytic action was tested on rats, in comparison with the known β-sympatholytic agent propranolol (1-isopropylamino)-1-naphthyloxy-2-propanol.HC1).
^1 Inhibition of isoproterenolinduced tachycardia in pithed rats.
Intravenous administration
^2 Dose which inhibits the isoproterenolinduced tachycardia by 50%

[2] = for Therapeutic range, absolute (LD 50 / ED 50%): LD 50 i.p. mice, ED 50% i.v. rats; for Therapeutic range (LD 50 / ED 50%), times greater than propranolol: comparison with propranolol; for Therapeutic range, relative (Propranolol = 1.00): relative to propranolol
Description: Isoproternol was administered before, and 5 minutes after, the intravenous administration of the test substances.

in vivo = conditions: mouse, ip

SMILES | ED50 ([1]; intravenous, pithed rats) | β1-sympatholytic activity, times greater than propranolol [1] | Therapeutic range, absolute (LD 50 / ED 50%) [2] | Therapeutic range (LD 50 / ED 50%), times greater than propranolol [2] | Therapeutic range, relative (Propranolol = 1.00) [2] | LD50 at 24 h (in vivo) | R.A. (relative activity, Propranolol = 1.00), β1-sympatholytic action ([1]; intravenous, pithed rats, relative to propranolol)
CC(C)(C)NCC(O)COc1ccccc1-c1ccc[nH]1.O=C(O)/C=C/C(=O)O (stereo not shown) [Example II, 2-[2-(3-tert.-butylamino-2-hydroxypropoxy)-phenyl]-pyrrole fumarate] | 2.27 µg/kg | 5.6 times | 767 | 7 times | 6.91 | 165 mg/kg | –
CC(C)NCC(O)COc1ccccc1-c1ccc[nH]1 (stereo not shown) [Example III, 2-[2-(3-isopropylamino-2-hydroxypropoxy)-phenyl]-pyrrole fumarate hemihydrate] | 4 µg/kg | 3.2 times | 452 | 4 times | 4.07 | 97.2 mg/kg | –
CC(C)NCC(O)COc1cccc2ccccc12 (stereo not shown) [Propranolol, reference compound] | – | – | – | – | – | – | 1.00
